Laboratory results: ChEMBL document CHEMBL1141309, “Isoechinulin-type alkaloids, variecolorins A-L, from halotolerant Aspergillus variecolor” (J Nat Prod, 2007)

Columns and labels:
[1] = DPPH radical scavenging activity; assay type: functional
[2] = test system: P388; assay: Cytotoxicity against mouse P388 cells after 72 hrs by MTT assay; assay type: functional, cell-based; conditions: P388, 72 h
[3] = test system: HL-60; assay: Cytotoxicity against human HL60 cells after 72 hrs by MTT assay; assay type: functional, cell-based; conditions: HL-60, 72 h
[4] = test system: Bel-7402; assay: Cytotoxicity against human BEL-7402 cells after 24 hrs by SRB assay; assay type: functional, cell-based; conditions: Bel-7402, 24 h
[5] = Cytotoxicity against human […] cells after 24 hrs by SRB assay; assay type: functional, cell-based

IC50 [1] | Compound | IC50 [2] | IC50 [3] | IC50 [4] | IC50 [5]
22 µM | O=C1O[C@H]([C@@H](O)CO)C(O)=C1O [ASCORBIC ACID] | – | – | – | –
65 µM | C=CC(C)(C)c1[nH]c2ccccc2c1/C=c1\[nH]c(=O)c(=C)[nH]c1=O [NEOECHINULIN B] | – | – | – | –
1000 µM | C=CC(C)(C)c1[nH]c2ccccc2c1C[C@@H]1NC(=O)[C@H](C)NC1=O [PREECHINULIN] | – | – | – | –
912 µM | C=CC(C)(C)c1[nH]c2ccc(CC=C(C)C)cc2c1C[C@@H]1NC(=O)[C@H](C)NC1=O [TARDIOXOPIPERAZINE A] | – | – | – | –
899 µM | C=CC(C)(C)c1[nH]c2c(CC=C(C)C)cccc2c1C[C@@H]1NC(=O)[C@H](C)NC1=O [TARDIOXOPIPERAZINE B] | – | – | – | –
79 µM | C=CC(C)(C)c1[nH]c2ccc(C[C@@H](O)C(C)(C)Cl)cc2c1/C=C1\NC(=O)[C@H](C)NC1=O [VARIECOLORIN A] | > 50 µM | > 50 µM | > 50 µM | > 50 µM
88 µM | C=CC(C)(C)c1[nH]c2ccc(C[C@H]3OC(C)(C)OC3(C)C)cc2c1/C=C1\NC(=O)[C@H](C)NC1=O [VARIECOLORIN D] | > 50 µM | > 50 µM | > 50 µM | > 50 µM
77 µM | C=CC(C)(C)c1[nH]c2c(C[C@@H](O)C(C)(C)Cl)cccc2c1/C=C1\NC(=O)[C@H](C)NC1=O [VARIECOLORIN F] | > 50 µM | > 50 µM | > 50 µM | > 50 µM
102 µM | C=CC(C)(C)c1[nH]c2ccc(CC=C(C)C)cc2c1/C=C1\NC(=O)C(=O)NC1=O [VARIECOLORIN J] | > 50 µM | > 50 µM | > 50 µM | > 50 µM
89 µM | C=CC(C)(C)c1[nH]c2cc3c(cc2c1/C=C1\NC(=O)[C@H](C)NC1=O)C[C@H](C(C)(C)O)OC3(C)C [VARIECOLORIN K] | > 50 µM | > 50 µM | > 50 µM | > 50 µM

The remaining lines, values behind:

Compound | IC50 [1] | IC50 [2] | IC50 [3] | IC50 [4] | IC50 [5]
C=CC(C)(C)c1[nH]c2c(CC=C(C)C)cc(CC=C(C)C)cc2c1C[C@@H]1NC(=O)[C@H](C)NC1=O [ECHINULIN] | 569 µM | – | – | – | –
C=CC(C)(C)c1[nH]c2ccc(CC=C(C)C)cc2c1/C=C1\NC(=O)[C@H](C)NC1=O [ISOECHINULIN A] | 98 µM | – | – | – | –
CC(=O)O[C@H]1C(=O)[C@@]2(C)[C@H]([C@H](OC(=O)c3ccccc3)[C@]3(O)C[C@H](OC(=O)[C@H](O)[C@@H](NC(=O)c4ccccc4)c4ccccc4)C(C)=C1C3(C)C)[C@]1(OC(C)=O)CO[C@@H]1C[C@@H]2O [PACLITAXEL] | – | 0.93 µM | 0.93 µM | 0.93 µM | 0.93 µM
C=CC(C)(C)c1[nH]c2ccc(C[C@@H](Cl)C(C)(C)O)cc2c1/C=C1\NC(=O)[C@H](C)NC1=O [VARIECOLORIN B] | 97 µM | > 50 µM | > 50 µM | > 50 µM | > 50 µM
C=CC(C)(C)c1[nH]c2ccc(C[C@@H](O)C(=C)C)cc2c1/C=C1\NC(=O)[C@H](C)NC1=O [VARIECOLORIN C] | 75 µM | > 50 µM | > 50 µM | > 50 µM | > 50 µM
C=CC(C)(C)c1[nH]c2ccc(CC(=O)C(C)C)cc2c1/C=C1\NC(=O)[C@H](C)NC1=O [VARIECOLORIN E] | 79 µM | > 50 µM | > 50 µM | > 50 µM | > 50 µM
C=CC(C)(C)c1[nH]c2c(CC=C(C)C)cccc2c1/C=C1\NC(=O)[C@H](C)NC1=O [VARIECOLORIN G] | 86 µM | > 50 µM | > 50 µM | > 50 µM | > 50 µM
C=CC(C)(C)c1[nH]c2ccccc2c1/C=C1\NC(=O)C(C)(OC)NC1=O (stereo unspecified) [VARIECOLORIN H] | 99 µM | > 50 µM | > 50 µM | > 50 µM | > 50 µM
C=CC(C)(C)c1[nH]c2ccc(CC=C(C)C)cc2c1/C=C1\NC(=O)C(C)(OC)NC1=O (stereo unspecified) [VARIECOLORIN I] | 79 µM | > 50 µM | > 50 µM | > 50 µM | > 50 µM
C=CC(C)(C)c1[nH]c2ccc(CC=C(C)C)c(CC=C(C)C)c2c1C[C@@H]1NC(=O)[C@H](C)NC1=O [VARIECOLORIN L] | 623 µM | > 50 µM | > 50 µM | > 50 µM | > 50 µM
